# How the values were obtained:
# [1] = system: live HEK293T cells; experiment: labeling of live HEK293T cells
# [2] = system: B-cell hybridomas; experiment: ratiometric imaging of sulfenylation in live cells by TIRF microscopy; format: cell-based
# Experimental: Next, whether DiNap-1F could be used for ratiometric imaging sulfenylation in live cells by Total Internal Reflectance Fluorescence (TIRF) microscopy was tested.
compound,measurement,setting,value
Nc1ccc2c3c(cccc13)C(=O)C(F)=C2O [DiNap-1F],cell permeability,[1]; live mammalian cells,validating cell permeability
same,labeling of live mammalian cells,[1]; time and concentration dependence,labeled efficiently
same,excitation ratio change over time,[2],clearly elicited a robust excitation ratio change over time
